Reference: PubChem BioAssay AID1963833 (Molecular Pharmacology Branch, DTP, NCI, 2024)

Tested on: 883617-216-R-J1-PDC complex spheroid viability
Assay: Anticancer human tumor 883617-216-R-J1-PDC patient-derived bladder carcinoma cell line growth inhibition [POLQ]
Settings: for IC50: curve of first compound; for viability, T/C: stronger effect = lower value
Method in brief: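 Three-cell-type spheroids modelling solid tumor plus stroma served as the readout system; POL inhibitors were tested individually and in combination, concentration ranges set by clinical Cmax where known.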

[1] = second compound 0.0316 µM, first compound 0.0316 µM
[2] = second compound 0.0316 µM, first compound 0.1 µM
[3] = second compound 0.0316 µM, first compound 0.316 µM
[4] = second compound 0.0316 µM, first compound 1 µM
[5] = second compound 0.0316 µM, first compound 3.16 µM
[6] = second compound 0.0316 µM, first compound 10 µM
[7] = second compound 0.1 µM, first compound 0.0316 µM
[8] = second compound 0.1 µM, first compound 0.1 µM
[9] = second compound 0.1 µM, first compound 0.316 µM
[10] = second compound 0.1 µM, first compound 1 µM
[11] = second compound 0.1 µM, first compound 3.16 µM
[12] = second compound 0.1 µM, first compound 10 µM
[13] = second compound 0.316 µM, first compound 0.0316 µM
[14] = second compound 0.316 µM, first compound 0.1 µM
[15] = second compound 0.316 µM, first compound 0.316 µM
[16] = second compound 0.316 µM, first compound 1 µM
[17] = second compound 0.316 µM, first compound 3.16 µM
[18] = second compound 0.316 µM, first compound 10 µM
[19] = second compound 1 µM, first compound 0.0316 µM
[20] = second compound 1 µM, first compound 0.1 µM
[21] = second compound 1 µM, first compound 0.316 µM
[22] = second compound 1 µM, first compound 1 µM
[23] = second compound 1 µM, first compound 3.16 µM
[24] = second compound 1 µM, first compound 10 µM
[25] = second compound 3.16 µM, first compound 0.0316 µM
[26] = second compound 3.16 µM, first compound 0.1 µM
[27] = second compound 3.16 µM, first compound 0.316 µM
[28] = second compound 3.16 µM, first compound 1 µM
[29] = second compound 3.16 µM, first compound 3.16 µM
[30] = second compound 3.16 µM, first compound 10 µM
[31] = second compound 10 µM, first compound 0.0316 µM
[32] = second compound 10 µM, first compound 0.1 µM
[33] = second compound 10 µM, first compound 0.316 µM
[34] = second compound 10 µM, first compound 1 µM
[35] = second compound 10 µM, first compound 3.16 µM
[36] = second compound 10 µM, first compound 10 µM
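Also: spheroids exposed to compounds for seven days before readout.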
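For viability, T/C in this document: 100% = DMSO vehicle control viability.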

CC(=O)O[C@H]1C(=O)[C@@]2(C)[C@H]([C@H](OC(=O)c3ccccc3)[C@]3(O)C[C@H](OC(=O)[C@H](O)[C@@H](NC(=O)c4ccccc4)c4ccccc4)C(C)=C1C3(C)C)[C@]1(OC(C)=O)CO[C@@H]1C[C@@H]2O + COC1C(OC(N)=O)C(O)C(Oc2ccc3c(O)c(NC(=O)c4ccc(O)c(CC=C(C)C)c4)c(=O)oc3c2C)OC1(C)C
IC50 (second compound 0.0316 µM): < 9.49 nM | IC50 (second compound 0.1 µM): < 9.49 nM | IC50 (second compound 0.316 µM): < 9.49 nM | IC50 (second compound 1 µM): < 9.49 nM | IC50 (second compound 3.16 µM): < 9.49 nM | IC50 (second compound 10 µM): < 9.49 nM | viability, T/C (second compound 0.0316 µM, first compound 0.00949 µM): 39.5% | viability, T/C (second compound 0.0316 µM, first compound 0.03 µM): 27.8% | viability, T/C (second compound 0.0316 µM, first compound 0.0949 µM): 26.4% | viability, T/C (second compound 0.0316 µM, first compound 0.3 µM): 20.8% | viability, T/C (second compound 0.0316 µM, first compound 0.949 µM): 18.2% | viability, T/C (second compound 0.0316 µM, first compound 3 µM): 19.8% | viability, T/C (second compound 0.1 µM, first compound 0.00949 µM): 40.2% | viability, T/C (second compound 0.1 µM, first compound 0.03 µM): 34.2% | viability, T/C (second compound 0.1 µM, first compound 0.0949 µM): 23.4% | viability, T/C (second compound 0.1 µM, first compound 0.3 µM): 23.7% | viability, T/C (second compound 0.1 µM, first compound 0.949 µM): 19.6% | viability, T/C (second compound 0.1 µM, first compound 3 µM): 20.7% | viability, T/C (second compound 0.316 µM, first compound 0.00949 µM): 50.6% | viability, T/C (second compound 0.316 µM, first compound 0.03 µM): 27.9% | viability, T/C (second compound 0.316 µM, first compound 0.0949 µM): 25.4% | viability, T/C (second compound 0.316 µM, first compound 0.3 µM): 17.5% | viability, T/C (second compound 0.316 µM, first compound 0.949 µM): 16.1% | viability, T/C (second compound 0.316 µM, first compound 3 µM): 20.6% | viability, T/C (second compound 1 µM, first compound 0.00949 µM): 42.2% | viability, T/C (second compound 1 µM, first compound 0.03 µM): 28.2% | viability, T/C (second compound 1 µM, first compound 0.0949 µM): 19% | viability, T/C (second compound 1 µM, first compound 0.3 µM): 26% | viability, T/C (second compound 1 µM, first compound 0.949 µM): 20.5% | viability, T/C (second compound 1 µM, first compound 3 µM): 15.9% | viability, T/C (second compound 3.16 µM, first compound 0.00949 µM): 42.7% | viability, T/C (second compound 3.16 µM, first compound 0.03 µM): 31.1% | viability, T/C (second compound 3.16 µM, first compound 0.0949 µM): 21.9% | viability, T/C (second compound 3.16 µM, first compound 0.3 µM): 22.7% | viability, T/C (second compound 3.16 µM, first compound 0.949 µM): 23.7% | viability, T/C (second compound 3.16 µM, first compound 3 µM): 17.1% | viability, T/C (second compound 10 µM, first compound 0.00949 µM): 42.2% | viability, T/C (second compound 10 µM, first compound 0.03 µM): 27.1% | viability, T/C (second compound 10 µM, first compound 0.0949 µM): 15.1% | viability, T/C (second compound 10 µM, first compound 0.3 µM): 16% | viability, T/C (second compound 10 µM, first compound 0.949 µM): 21% | viability, T/C (second compound 10 µM, first compound 3 µM): 21.6%

COc1cc(C2c3cc4c(cc3C(OC3OC5COC(C)OC5C(O)C3O)C3COC(=O)C23)OCO4)cc(OC)c1O (stereo unspecified) + COC1C(OC(N)=O)C(O)C(Oc2ccc3c(O)c(NC(=O)c4ccc(O)c(CC=C(C)C)c4)c(=O)oc3c2C)OC1(C)C
IC50 (second compound 0.0316 µM): > 10000 nM | IC50 (second compound 0.1 µM): > 10000 nM | IC50 (second compound 0.316 µM): > 10000 nM | IC50 (second compound 1 µM): > 10000 nM | IC50 (second compound 3.16 µM): > 10000 nM | IC50 (second compound 10 µM): > 10000 nM | viability, T/C [1]: 96.1% | viability, T/C [2]: 90% | viability, T/C [3]: 74.3% | viability, T/C [4]: 61.8% | viability, T/C [5]: 59.5% | viability, T/C [6]: 51.7% | viability, T/C [7]: 109% | viability, T/C [8]: 89.6% | viability, T/C [9]: 71.1% | viability, T/C [10]: 69% | viability, T/C [11]: 51.2% | viability, T/C [12]: 59.3% | viability, T/C [13]: 87% | viability, T/C [14]: 90.2% | viability, T/C [15]: 78.9% | viability, T/C [16]: 72.2% | viability, T/C [17]: 70.8% | viability, T/C [18]: 51% | viability, T/C [19]: 97% | viability, T/C [20]: 89.5% | viability, T/C [21]: 72.9% | viability, T/C [22]: 57.9% | viability, T/C [23]: 57.3% | viability, T/C [24]: 48.9% | viability, T/C [25]: 106% | viability, T/C [26]: 92.1% | viability, T/C [27]: 72.7% | viability, T/C [28]: 65.7% | viability, T/C [29]: 57.4% | viability, T/C [30]: 52.7% | viability, T/C [31]: 97.2% | viability, T/C [32]: 95.4% | viability, T/C [33]: 73% | viability, T/C [34]: 59.8% | viability, T/C [35]: 55.6% | viability, T/C [36]: 53%

COc1cccc2c1C(=O)c1c(O)c3c(c(O)c1C2=O)CC(O)(C(=O)CO)CC3OC1CC(N)C(O)C(C)O1 (stereo unspecified) + COC1C(OC(N)=O)C(O)C(Oc2ccc3c(O)c(NC(=O)c4ccc(O)c(CC=C(C)C)c4)c(=O)oc3c2C)OC1(C)C
IC50 (second compound 0.0316 µM): 186 nM | IC50 (second compound 0.1 µM): 320 nM | IC50 (second compound 0.316 µM): 251 nM | IC50 (second compound 1 µM): 214 nM | IC50 (second compound 3.16 µM): 308 nM | IC50 (second compound 10 µM): 151 nM | viability, T/C [1]: 62.3% | viability, T/C [2]: 49.8% | viability, T/C [3]: 45.3% | viability, T/C [4]: 4.36% | viability, T/C [5]: 0.76% | viability, T/C [6]: 0.26% | viability, T/C [7]: 67.3% | viability, T/C [8]: 59.6% | viability, T/C [9]: 50.8% | viability, T/C [10]: 6% | viability, T/C [11]: 0.55% | viability, T/C [12]: 0.43% | viability, T/C [13]: 70.4% | viability, T/C [14]: 58.2% | viability, T/C [15]: 47.5% | viability, T/C [16]: 6.74% | viability, T/C [17]: 1.39% | viability, T/C [18]: 1.91% | viability, T/C [19]: 73.9% | viability, T/C [20]: 55% | viability, T/C [21]: 45% | viability, T/C [22]: 3.27% | viability, T/C [23]: 0.35% | viability, T/C [24]: 1.2% | viability, T/C [25]: 61.1% | viability, T/C [26]: 48.6% | viability, T/C [27]: 50% | viability, T/C [28]: 4.18% | viability, T/C [29]: 1.17% | viability, T/C [30]: 0.37% | viability, T/C [31]: 59.5% | viability, T/C [32]: 50.9% | viability, T/C [33]: 41.5% | viability, T/C [34]: 5% | viability, T/C [35]: 0.8% | viability, T/C [36]: 0.3%
